Measurements: ChEMBL document CHEMBL4376806, “Antibiotic Adjuvants: Make Antibiotics Great Again!” (2019)

Tests used:
[1] = target: Beta-lactamase CTX-M-27 (Escherichia coli) (UniProt Q840M4); experiment: Inhibition of beta-lactamase CTX-M-27 in Escherichia coli (EC113) ST 131 assessed as potentiation of cefazolin-induced antibacterial activity by measuring cefazolin MIC at 10 ug/ml incubated for 18 hrs by CLSI based broth microtitre dilution method (Rvb >16 ug/ml)
[2] = target: Beta-lactamase CTX-M-27 (Escherichia coli) (UniProt Q840M4); experiment: Inhibition of beta-lactamase CTX-M-27 in Escherichia coli (EC113) ST 131 assessed as potentiation of ampicillin-induced antibacterial activity by measuring ampicillin MIC at 10 ug/ml incubated for 18 hrs by CLSI based broth microtitre dilution method (Rvb >16 ug/ml)
[3] = target: Beta-lactamase CTX-M-27 (Escherichia coli) (UniProt Q840M4); experiment: Inhibition of beta-lactamase CTX-M-27 in Escherichia coli (EC113) ST 131 assessed as potentiation of aztreonam-induced antibacterial activity by measuring aztreonam MIC at 10 ug/ml incubated for 18 hrs by CLSI based broth microtitre dilution method (Rvb >16 ug/ml)
[4] = target: Beta-lactamase CTX-M-27 (Escherichia coli) (UniProt Q840M4); experiment: Inhibition of beta-lactamase CTX-M-27 in Escherichia coli (EC113) ST 131 assessed as potentiation of piperacillin-induced antibacterial activity by measuring piperacillin MIC at 10 ug/ml incubated for 18 hrs by CLSI based broth microtitre dilution method (Rvb >64 ug/ml)
[5] = target: Beta-lactamase CTX-M-27 (Escherichia coli) (UniProt Q840M4); experiment: Inhibition of beta-lactamase CTX-M-27 in Escherichia coli (EC113) ST 131 assessed as potentiation of cefepime-induced antibacterial activity by measuring cefepime MIC at 10 ug/ml incubated for 18 hrs by CLSI based broth microtitre dilution method (Rvb >32 ug/ml)
[6] = target: Beta-lactamase CTX-M-27 (Escherichia coli) (UniProt Q840M4); experiment: Inhibition of beta-lactamase CTX-M-27 in Escherichia coli (EC113) ST 131 assessed as potentiation of ceftriaxone-induced antibacterial activity by measuring ceftriaxone MIC at 10 ug/ml incubated for 18 hrs by CLSI based broth microtitre dilution method (Rvb >32 ug/ml)
[7] = target: Beta-lactamase CTX-M-27 (Escherichia coli) (UniProt Q840M4); experiment: Inhibition of beta-lactamase CTX-M-27 in Escherichia coli (EC113) ST 131 assessed as potentiation of ceftazidime-induced antibacterial activity by measuring ceftazidime MIC at 10 ug/ml incubated for 18 hrs by CLSI based broth microtitre dilution method (reference value: 8 ug/ml)
Streptococcus pyogenes [8] = experiment: Synergistic antibacterial activity against Streptococcus pyogenes assessed as fractional inhibitory concentration index in presence of ampicillin by checkerboard assay; assay type: functional
Pseudomonas aeruginosa [9] = experiment: Inhibition of beta-lactamase in Pseudomonas aeruginosa assessed as potentiation of ampicillin-induced antibacterial activity by measuring ampicillin MIC incubated for 24 hrs by CLSI method (Rvb >200 ug/ml)
Escherichia coli [10] = experiment: Inhibition of beta-lactamase in Escherichia coli assessed as potentiation of ampicillin-induced antibacterial activity by measuring ampicillin MIC incubated for 24 hrs by CLSI method (reference value: 100 ug/ml)
Streptococcus pyogenes [11] = experiment: Inhibition of beta-lactamase in Streptococcus pyogenes assessed as potentiation of ampicillin-induced antibacterial activity by measuring ampicillin MIC incubated for 24 hrs by CLSI method (Rvb > 200 ug/ml)
Staphylococcus aureus [12] = experiment: Synergistic antibacterial activity against Staphylococcus aureus assessed as fractional inhibitory concentration index in presence of ampicillin by checkerboard assay; assay type: functional
Staphylococcus aureus [13] = experiment: Inhibition of beta-lactamase in Staphylococcus aureus assessed as potentiation of ampicillin-induced antibacterial activity by measuring ampicillin MIC incubated for 24 hrs by CLSI method (Rvb > 200 ug/ml)
Pseudomonas aeruginosa [14] = experiment: Synergistic antibacterial activity against Pseudomonas aeruginosa assessed as fractional inhibitory concentration index in presence of ampicillin by checkerboard assay; assay type: functional
[15] = tested on: MexAB/OprM (Pseudomonas aeruginosa (strain ATCC 15692 / DSM 22644 / CIP 104116 / JCM14847 / LMG 12228 / 1C / PRS 101 / PAO1)), P52477+P52002+Q51487 [UNDEFINED MUTATION]; experiment: Inhibition of MexAB/OprM nalB mutant in Pseudomonas aeruginosa PAO1 K1455 assessed as potentiation of cefotaxime-induced antibacterial activity by measuring cefotaxime MIC at 20 ug/ml incubated for 18 hrs by CLSI based broth microtitre dilution method (reference value: 64 ug/ml)
[16] = tested on: MexAB/OprM (Pseudomonas aeruginosa (strain ATCC 15692 / DSM 22644 / CIP 104116 / JCM14847 / LMG 12228 / 1C / PRS 101 / PAO1)), P52477+P52002+Q51487 [UNDEFINED MUTATION]; experiment: Inhibition of MexAB/OprM nalB mutant in Pseudomonas aeruginosa PAO1 K1455 assessed as potentiation of novobiocin-induced antibacterial activity by measuring novobiocin MIC at 20 ug/ml incubated for 18 hrs by CLSI based broth microtitre dilution method (Rvb > 2048 ug/ml)
[17] = tested on: MexAB/OprM (Pseudomonas aeruginosa (strain ATCC 15692 / DSM 22644 / CIP 104116 / JCM14847 / LMG 12228 / 1C / PRS 101 / PAO1)), P52477+P52002+Q51487 [UNDEFINED MUTATION]; experiment: Inhibition of MexAB/OprM nalB mutant in Pseudomonas aeruginosa PAO1 K1455 assessed as potentiation of levofloxacin-induced antibacterial activity by measuring levofloxacin MIC at 20 ug/ml incubated for 18 hrs by CLSI based broth microtitre dilution method (reference value: 2 ug/ml)
[18] = tested on: MexAB/OprM (Pseudomonas aeruginosa (strain ATCC 15692 / DSM 22644 / CIP 104116 / JCM14847 / LMG 12228 / 1C / PRS 101 / PAO1)), P52477+P52002+Q51487 [UNDEFINED MUTATION]; experiment: Inhibition of MexAB/OprM nalB mutant in Pseudomonas aeruginosa PAO1 K1455 assessed as potentiation of tetracycline-induced antibacterial activity by measuring tetracycline MIC at 20 ug/ml incubated for 18 hrs by CLSI based broth microtitre dilution method (reference value: 64 ug/ml)
[19] = tested on: MexAB/OprM (Pseudomonas aeruginosa (strain ATCC 15692 / DSM 22644 / CIP 104116 / JCM14847 / LMG 12228 / 1C / PRS 101 / PAO1)), P52477+P52002+Q51487 [UNDEFINED MUTATION]; experiment: Inhibition of MexAB/OprM nalB mutant in Pseudomonas aeruginosa PAO1 K1455 assessed as potentiation of rifampin-induced antibacterial activity by […] at 20 ug/ml incubated for 18 hrs by CLSI based broth microtitre dilution method (reference value: 16 ug/ml)
[20] = tested on: MexAB/OprM (Pseudomonas aeruginosa (strain ATCC 15692 / DSM 22644 / CIP 104116 / JCM14847 / LMG 12228 / 1C / PRS 101 / PAO1)), P52477+P52002+Q51487 [UNDEFINED MUTATION]; experiment: Inhibition of MexAB/OprM nalB mutant in Pseudomonas aeruginosa PAO1 K1455 assessed as potentiation of erythromycin-induced antibacterial activity by measuring erythromycin MIC at 20 ug/ml incubated for 18 hrs by CLSI based broth microtitre dilution method (reference value: 256 ug/ml)
Escherichia coli [21] = experiment: Inhibition of Beta-lactamase PER-1 in Escherichia coli KB10 assessed as potentiation of ceftazidime-induced antibacterial activity by measuring ceftazidime MIC (Rvb >64 ug/ml)
Klebsiella pneumoniae [22] = experiment: Inhibition of beta-lactamase TEM-2 in Klebsiella pneumoniae IP1 assessed as potentiation of ceftazidime-induced antibacterial activity by measuring ceftazidime MIC (reference value: 16 ug/ml)
[23] = target: Beta-lactamase TEM (Escherichia coli) (UniProt P62593); experiment: Inhibition of beta-lactamase TEM-1 in Escherichia coli GN5482 assessed as potentiation of ceftazidime-induced antibacterial activity by measuring ceftazidime MIC (reference value: 4 ug/ml)
Escherichia coli [24] = experiment: Inhibition of beta-lactamase TEM-8 in Escherichia coli CF3 assessed as potentiation of ceftazidime-induced antibacterial activity by measuring ceftazidime MIC (reference value: 64 ug/ml)
Klebsiella pneumoniae [25] = experiment: Inhibition of beta-lactamase TEM-4 in Klebsiella pneumoniae 25637 assessed as potentiation of ceftazidime-induced antibacterial activity by measuring ceftazidime MIC (reference value: 32 ug/ml)
Klebsiella pneumoniae [26] = experiment: Inhibition of Beta-lactamase SHV-2 in Klebsiella pneumoniae IP86 assessed as potentiation of ceftazidime-induced antibacterial activity by measuring ceftazidime MIC (reference value: 64 ug/ml)
Pseudomonas aeruginosa [27] = experiment: Potentiation of amikacin-induced antibacterial activity against Pseudomonas aeruginosa 03 assessed as amikacin MIC at 32 ug/ml after 24 hrs by broth microdilution assay (reference value: 312.5 ug/ml); assay type: functional; details: Pseudomonas aeruginosa, 03, 24 h
Staphylococcus aureus [28] = experiment: Potentiation of amikacin-induced antibacterial activity against Staphylococcus aureus 358 assessed as amikacin MIC at 64 ug/ml after 24 hrs by broth microdilution assay (reference value: 156.2 ug/ml); assay type: functional; details: Staphylococcus aureus, 358, 24 h
Pseudomonas aeruginosa [29] = experiment: Potentiation of gentamicin-induced antibacterial activity against Pseudomonas aeruginosa 03 assessed as gentamicin MIC at 32 ug/ml after 24 hrs by broth microdilution assay (reference value: 625 ug/ml); assay type: functional; details: Pseudomonas aeruginosa, 03, 24 h
Escherichia coli [30] = experiment: Potentiation of amikacin-induced antibacterial activity against Escherichia coli 27 assessed as amikacin MIC at 64 ug/ml after 24 hrs by broth microdilution assay (reference value: 156.2 ug/ml); assay type: functional; details: Escherichia coli, 27, 24 h
Staphylococcus aureus [31] = experiment: Potentiation of gentamicin-induced antibacterial activity against Staphylococcus aureus 358 assessed as gentamicin MIC at 64 ug/ml after 24 hrs by broth microdilution assay (reference value: 312.5 ug/ml); assay type: functional; details: Staphylococcus aureus, 358, 24 h
Staphylococcus aureus [32] = experiment: Potentiation of neomycin-induced antibacterial activity against Staphylococcus aureus 358 assessed as neomycin MIC at 64 ug/ml after 24 hrs by broth microdilution assay (reference value: 156.2 ug/ml); assay type: functional; details: Staphylococcus aureus, 358, 24 h
Escherichia coli [33] = experiment: Potentiation of gentamicin-induced antibacterial activity against Escherichia coli 27 assessed as gentamicin MIC at 64 ug/ml after 24 hrs by broth microdilution assay (reference value: 625 ug/ml); assay type: functional; details: Escherichia coli, 27, 24 h
Escherichia coli [34] = experiment: Potentiation of neomycin-induced antibacterial activity against Escherichia coli 27 assessed as neomycin MIC at 64 ug/ml after 24 hrs by broth microdilution assay (reference value: 312.5 ug/ml); assay type: functional; details: Escherichia coli, 27, 24 h

## NCc1ccc(C(=O)N[C@H]2Cc3cccc(C(=O)O)c3O[B-]2(O)O)cc1
[1]
  MIC: 4 µg/mL
[2]
  MIC: < 8 µg/mL
[3]
  MIC: < 1 µg/mL
[4]
  MIC: < 16 µg/mL
[5]
  MIC: < 4 µg/mL
[6]
  MIC: < 0.5 µg/mL
[7]
  MIC: < 1 µg/mL

## CC[C@H](/C=C/[C@@H](C)[C@H]1CC[C@H]2[C@@H]3CC=C4C[C@@H](O)CC[C@]4(C)[C@H]3CC[C@]12C)C(C)C [STIGMASTEROL]
Streptococcus pyogenes [8]
  fractional inhibitory concentration index (FICI): <0.5
Pseudomonas aeruginosa [9]
  MIC: 6.25 µg/mL
Escherichia coli [10]
  MIC: 6.25 µg/mL
Streptococcus pyogenes [11]
  MIC: 1.56 µg/mL
Staphylococcus aureus [12]
  fractional inhibitory concentration index (FICI): <0.5
Staphylococcus aureus [13]
  MIC: 3.13 µg/mL
Pseudomonas aeruginosa [14]
  fractional inhibitory concentration index (FICI): <0.5

## C[C@H]1[C@H]2CC[C@H]3[C@@H]4CC=C5C[C@@H](N(C)C)CC[C@]5(C)[C@H]4CC[C@]23CN1C
[15]
  MIC: 8 µg/mL
[16]
  MIC: 256 µg/mL
[17]
  MIC: 0.25 µg/mL
[18]
  MIC: 8 µg/mL
[19]
  MIC: 2 µg/mL
[20]
  MIC: 32 µg/mL

## NC(=O)[C@@H]1CC[C@@H]2CN1C(=O)N2OS(=O)(=O)O
Escherichia coli [21]
  MIC: 4 µg/mL
Klebsiella pneumoniae [22]
  MIC: 0.5 µg/mL
[23]
  MIC: 0.5 µg/mL
Escherichia coli [24]
  MIC: 2 µg/mL
Klebsiella pneumoniae [25]
  MIC: 0.5 µg/mL
Klebsiella pneumoniae [26]
  MIC: 1 µg/mL

## CC1=CC(=O)c2ccccc2C1=O [MENADIONE]
Pseudomonas aeruginosa [27]
  MIC: 2.4 µg/mL
Staphylococcus aureus [28]
  MIC: 2.4 µg/mL
Pseudomonas aeruginosa [29]
  MIC: 2.4 µg/mL
Escherichia coli [30]
  MIC: 2.4 µg/mL
Staphylococcus aureus [31]
  MIC: 2.4 µg/mL
Staphylococcus aureus [32]
  MIC: 2.4 µg/mL
Escherichia coli [33]
  MIC: 2.4 µg/mL
Escherichia coli [34]
  MIC: 2.4 µg/mL
